The values below come from patent publication US11426403B2 (ST IP Holding AG, priority 2016, dated 2022).

SMILES strings stand for the structures. Read-outs that look alike come from different tables or passages of the source.

Data set [1] concerns primary human gingival epithelial cells (HGEPp). Briefly: cells. The following applies: Epithelial cell, 4 h, read-out: IC50 of H2O2 in HGEPp cells.
Method: (§1) Pooled primary HGEPps were propagated in CnT-Prime epithelial culture medium provided by CellnTec on 100 mm petri dishes coated with 30 mg/ml Type I rat tail collagen (BD Biosciences) diluted in Dulbecco's phosphate-buffered saline (DPBS). […] The cells were harvested when they reached 70-90% confluency as observed by light microscopy. For routine cultivation, the medium was changed every 3 days. For both the cell viability and ROS assays, the cells from passages 3-7 were seeded at 5×10 3, 2.5×10 4, 5×10^4 cells/cm 2 density to grow cell monolayers in 24-well flat-bottomed tissue culture plates and acclimated overnight at 37° C. […]
(§2) Once the HGEPp cells were cultured and ready on the microplate, the media was removed from all the wells and discarded. […] Removed the plate cover and measured the absorbance of the wells, including the blanks at 570 nm. • 8. Determined the average values from triplicate readings after subtracting the average value for the blanks.
(§3) HGEPp cells were exposed to different concentrations of H2O2 for 4 h to examine H2O2-induced oxidative stress. The cells were exposed to 0-0.6 mM H2O2 for 4 h and cell viability was evaluated using the TACS MTT Cell Proliferation Assay Kit. The percentage of cell survival was determined using the ratio of the optical density (OD) of the test sample to the OD of the control×100%. […]
For data set [2], the system named is reactive oxygen species within HGEPp cells. The following applies: 0.3 mM H2O2 for 4 h.
From the text: 2. measure the effect of recrystallized oltipraz and formulated oltipraz on hydroxyl, peroxyl and other reactive oxygen species within HGEPp cells, using Cell Biolabs' OxiSelect™ Intracellular ROS Assay Kit. This assay employs the cell-permeable fluorogenic probe 2′,7′-dichlorodihydrofluorescin diacetate (DCFH-DA) which diffuses into cells and is deacetylated by cellular esterases to a nonfluorescent DCFH which is then rapidly oxidized to highly fluorescent 2′,7′-dichlorodihydrofluorescein (DCF) by ROS.
Pooled primary HGEPps were propagated in CnT-Prime epithelial culture medium provided by CellnTec on 100 mm petri dishes coated with 30 mg/ml Type I rat tail collagen (BD Biosciences) diluted in Dulbecco's phosphate-buffered saline (DPBS). […] The cells were harvested when they reached 70-90% confluency as observed by light microscopy. For routine cultivation, the medium was changed every 3 days. […]
Prepared and mixed all reagents thoroughly before use. […] Once the HGEPp cells were cultured and ready on a microplate, the media was removed from all the wells and discarded. […] Fluorescence was read on a Fluorescence Plate Reader after 1 hour. […] Transferred 150 μL of the mixture to a fresh 24-well plate for fluorescence measurements at 530 nm. […]
Intracellular ROS was measured using a Spectramax M3 microplate reader.
The test system of data set [3] is oral mucositis induced by acute radiation, left buccal cheek pouch. The method, then:
Twenty-four (24) male Syrian Golden Hamsters were used in the study. Mucositis was induced by giving an acute radiation dose of 40 Gy directed to the left buccal cheek pouch on Day 0. Mucositis was evaluated clinically starting on Day 6, and continuing on alternate days until Day 28.
Mucositis was scored visually by comparison to a validated photographic scale, ranging from 0 for normal, to 5 for severe ulceration (clinical scoring). In descriptive terms, this scale is defined as described in Table 7 below: […]
A mucositis score of 3 or greater indicates ulcerative mucositis, a clinically significant threshold.
Statistical significance of observed differences was calculated using chi-squared analysis.
An analysis of the severity of mucositis was performed using the Mann-Whitney rank sum analysis to compare the visual mucositis scores for Groups 2 and 3 to the vehicle control group (Group 1) on each day of the analysis. In this analysis, 2 consecutive days of significant reduction in the mucositis score are generally required before it is regarded as clinically meaningful.
The significance of group differences observed in daily mucositis scores was determined using the Mann-Whitney rank sum test. This nonparametric statistic is appropriate for the visual mucositis scoring scale. The p-values for each calculation are shown. “x” denotes significant difference in mucositis scores. “y” denotes increase in comparison to vehicle Group […], “z” denotes decrease.
“y” denotes an increase in comparison to vehicle Group, “z” denotes decrease (improvement).

The conditions of data set [4]: hamster, Days -3 to 28, topical 1 mg/dose BID.
In data set [5] the test system is primary human gingival epithelial cells (HGEPp). The following applies: pretreated 24 h at 50 to 800 ug/ml, then 0.3 mM H2O2 for 4 h; P<0.05 versus PC.
Method: as §1, §2, §3

Turning to `OO` [Sample H2O2, hydrogen peroxide], the half-maximal inhibitory concentration (IC50) (usually the concentration that inhibits the measured activity by half) in data set [1] worked out at 300 µM. Also, the “ROS levels compared to normal control cells (100%)” value in data set [2] is 128%.

With `Cc1c(-c2cnccn2)ssc1=S` [Neat oltipraz, 4-methyl-5-(pyrazin-2-yl)-3H-1,2-dithiole-3-thione], the “Percent of Animals with Ulceration (Score ≥ 3)” value in data set [3] (Day 6) is listed as 0.0%; in data set [3] (Day 8) it was 0.0%; in data set [3] (Day 10), 0.0 z Percent; in data set [3] (Day 12) it was 50.0 y Percent; in data set [3] (Day 14) it was 100.0%; in data set [3] (Day 16), 100.0%. Moreover, the “Percent of Animals with Ulceration (Score ≥ 3)” value in data set [3] (Day 18) is on record as 100.0%; in data set [3] (Day 20), 100.0%; in data set [3] (Day 22) it was 100.0%; in data set [3] (Day 24), 50.0 z Percent; in data set [3] (Day 26) it was 25.0 z Percent; in data set [3] (Day 28) it was 25.0 z Percent. Also, in data set [4], the “mean daily percent body weight change (rate of weight gain)” value is on record as “gained weight at a slower rate than those administered placebo”. Further, in data set [5], the “effect on H2O2-induced decrease in HGEPp survival (MTT)” value was “promoted cell proliferation and reduced H2O2-induced decrease in HGEPp survival”.
